For test [1], the system named is T1, SBDSt1-TuαGT.
T1 construct: gene malQ; E. coli; 68,272 Da; with 4-alpha-glucanotransferase DPE2 (Solanum tuberosum), first CBM20 domain SBDSt1
Kind of test: glucose release (GOPOD), Michaelis-Menten fit. The test is classed as biochemical, Thermoproteus uzoniensis. As to conditions: disproportionation (maltotriose donor and acceptor); 70 °C, pH 7.0, 50 mM Hepes, 150 mM NaCl; 10 nM enzyme; read-out: SBDSt1-TuaGT. From the text:
glucose release (GOPOD), Michaelis-Menten fit on SBDSt1-TuαGT

In test [2] the test system is T2, SBDGA-TuαGT.
T2 construct: gene malQ; E. coli; 69,562 Da; with Glucoamylase (Aspergillus niger), C-terminal CBM20 domain SBDGA
Nature of the test: glucose release (GOPOD), Michaelis-Menten fit. The test is classed as biochemical, Thermoproteus uzoniensis. As to conditions: disproportionation (maltotriose donor and acceptor); 70 °C, pH 7.0, 50 mM Hepes, 150 mM NaCl; 10 nM enzyme; read-out: SBDGA-TuaGT. From the text: glucose release (GOPOD), Michaelis-Menten fit on SBDGA-TuαGT

SMILES strings stand for the structures.

With `OC[C@H]1O[C@H](O[C@H]2[C@H](O)[C@@H](O)[C@@H](O[C@H]3[C@H](O)[C@@H](O)C(O)O[C@@H]3CO)O[C@@H]2CO)[C@H](O)[C@@H](O)[C@@H]1O` (some centres unmarked) [maltotriose], the figures for the Km in test [1] and in test [2] were 3.5 ± 0.2 µM and 1.4 ± 0.1 µM, respectively.

The record behind these values is paper PMC9920598, “Impact of Starch Binding Domain Fusion on Activities and Starch Product Structure of 4-α-Glucanotransferase” (Molecules, 2023).
